Measured values from ChEMBL document CHEMBL4312009, “Multigram scale synthesis of polycyclic lactones and evaluation of antitumor and other biological properties” (Eur J Med Chem, 2020).

Tests used:
[1] = test system: GTPase KRas (Homo sapiens), P01116 [UNDEFINED MUTATION]; assay: Inhibition of KRas mutant in human DLD1 cells assessed as cell viability by measuring ATP at 0.2 uM relative to control; assay type: cell-based
[2] = test system: GTPase KRas (Homo sapiens), P01116 [UNDEFINED MUTATION]; assay: Inhibition of KRas mutant in human HCT116 cells assessed as cell viability by measuring ATP at 2 uM relative to control; assay type: cell-based
[3] = target: Microtubule-associated protein tau (Homo sapiens) (UniProt P10636); assay: Inhibition of human Tau at 40 uM relative to control
[4] = Activation of wnt pathway in mouse C2C12 cells assessed as increase in beta-catenin activity; assay type: cell-based
[5] = test system: GTPase KRas (Homo sapiens), P01116 [UNDEFINED MUTATION]; assay: Inhibition of KRas mutant in human SW480 cells assessed as cell viability by measuring ATP at 20 uM relative to control; assay type: cell-based
[6] = test system: GTPase KRas (Homo sapiens), P01116 [UNDEFINED MUTATION]; assay: Inhibition of KRas mutant in human SW480 cells assessed as cell viability by measuring ATP; assay type: cell-based
[7] = test system: GTPase KRas (Homo sapiens), P01116 [UNDEFINED MUTATION]; assay: Inhibition of KRas mutant in human HCT116 cells […] assessed as cell viability by measuring ATP at 0.2 uM relative to control; assay type: cell-based
HT-29 [8] = assay: Antiproliferative activity against human HT-29 cells assessed as reduction in cell viability incubated for 24 hrs by MTT assay; assay type: functional, cell-based; settings: HT-29, 24 h
[9] = test system: GTPase KRas (Homo sapiens), P01116 [UNDEFINED MUTATION]; assay: Inhibition of KRas mutant in human SW480 cells assessed as cell viability by measuring ATP at 0.2 uM relative to control; assay type: cell-based
[10] = test system: GTPase KRas (Homo sapiens), P01116 [UNDEFINED MUTATION]; assay: Inhibition of KRas mutant in human HCT116 cells […] assessed as cell viability by measuring ATP at 20 uM relative to control; assay type: cell-based
HeLa [11] = assay: Cell cycle arrest in human HeLa cells incubated for 21 hrs by propidium iodide based flow cytometry; assay type: functional
HeLa [12] = assay: Cell cycle arrest in human HeLa cells assessed as effect on 4N stage incubated for 21 hrs by propidium iodide based flow cytometry; assay type: functional
[13] = test system: GTPase KRas (Homo sapiens), P01116 [UNDEFINED MUTATION]; assay: Inhibition of KRas mutant in human SW480 cells assessed as cell viability by measuring ATP at 2 uM relative to control; assay type: cell-based
[14] = target: Sodium channel protein type 9 subunit alpha (Homo sapiens) (UniProt Q15858); assay: Inhibition of human Nav1.7 at 40 uM relative to control
HeLa [15] = assay: Cell cycle arrest in human HeLa cells assessed as effect on G1 phase incubated for 21 hrs by propidium iodide based flow cytometry; assay type: functional
HeLa [16] = assay: Cell cycle arrest in human HeLa cells assessed as effect on 2N stage incubated for 21 hrs by propidium iodide based flow cytometry; assay type: functional
[17] = test system: GTPase KRas (Homo sapiens), P01116 [UNDEFINED MUTATION]; assay: Inhibition of KRas mutant in human DLD1 cells assessed as cell viability by measuring ATP at 20 uM relative to control; assay type: cell-based
HeLa [18] = assay: Cell cycle arrest in human HeLa cells assessed as effect on mitotic index incubated for 21 hrs by propidium iodide based flow cytometry; assay type: functional
[19] = test system: GTPase KRas (Homo sapiens), P01116 [UNDEFINED MUTATION]; assay: Inhibition of KRas mutant in human HCT116 cells […] assessed as cell viability by measuring ATP at 2 uM relative to control; assay type: cell-based
CYP1A1 = assay: Selectivity index, ratio of IC50 of cytotoxicity against CHO cells to IC50 for bioactivation in CYP1A1 (unknown origin) transfected CHO cells assessed as CYP1A1-mediated drug activation by measuring reduction in cell viability; assay type: cell-based; settings: hamster, CHO cells and CYP1A1-transfected CHO cells; read-out: Ratio IC50
[20] = test system: GTPase KRas (Homo sapiens), P01116 [UNDEFINED MUTATION]; assay: Inhibition of KRas mutant in human HCT116 cells assessed as cell viability by measuring ATP; assay type: cell-based
[21] = target: T1, Angiopoietin-like protein 8 (Homo sapiens) (UniProt Q6UXH0); assay: Inhibition of human Angptl8 at 40 uM relative to control
T1 sequence (whole entry): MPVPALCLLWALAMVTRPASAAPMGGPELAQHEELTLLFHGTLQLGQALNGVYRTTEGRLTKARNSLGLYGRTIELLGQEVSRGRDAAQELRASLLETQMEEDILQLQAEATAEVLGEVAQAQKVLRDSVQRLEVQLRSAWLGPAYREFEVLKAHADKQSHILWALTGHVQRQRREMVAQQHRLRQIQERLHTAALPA

[22] = test system: GTPase KRas (Homo sapiens), P01116 [UNDEFINED MUTATION]; assay: Inhibition of KRas mutant in human DLD1 cells assessed as cell viability by measuring ATP at 2 uM relative to control; assay type: cell-based
[23] = test system: GTPase KRas (Homo sapiens), P01116 [UNDEFINED MUTATION]; assay: Inhibition of KRas mutant in human DLD1 cells assessed as cell viability by measuring ATP; assay type: cell-based
[24] = target: Apolipoprotein C-III (Homo sapiens) (UniProt P02656); assay: Inhibition of human APOC3 at 40 uM relative to control
HT-29 [25] = assay: Antiproliferative activity against human HT-29 cells assessed as reduction in cell viability incubated for 24 hrs in hypoxia condition by MTT assay; assay type: functional, cell-based; settings: HT-29, 24 h
[26] = test system: GTPase KRas (Homo sapiens), P01116 [UNDEFINED MUTATION]; assay: Inhibition of KRas mutant in human HCT116 cells […] assessed as cell viability by measuring ATP; assay type: cell-based
[27] = target: Proprotein convertase subtilisin/kexin type 9 (Homo sapiens) (UniProt Q8NBP7); assay: Inhibition of human PCSK9 at 40 uM relative to control
[28] = test system: GTPase KRas (Homo sapiens), P01116 [UNDEFINED MUTATION]; assay: Inhibition of KRas mutant in human HCT116 cells assessed as cell viability by measuring ATP at 0.2 uM relative to control; assay type: cell-based
HT-29 [29] = assay: Selectivity index, ratio of IC50 of antiproliferative activity against human HT-29 cells in normoxia to IC50 of antiproliferative activity against human HT-29 cells in hypoxia condition; assay type: functional
[30] = Activation of wnt pathway in mouse C2C12 cells assessed as increase in alkaline phosphatase activity; assay type: cell-based
CHO = assay: Cytotoxicity against CHO cells assessed as reduction in cell viability; assay type: cell-based; settings: Cricetulus griseus
[31] = test system: GTPase KRas (Homo sapiens), P01116 [UNDEFINED MUTATION]; assay: Inhibition of KRas mutant in human HCT116 cells assessed as cell viability by measuring ATP at 20 uM relative to control; assay type: cell-based
HeLa [32] = assay: Cell cycle arrest in human HeLa cells assessed as effect on S phase incubated for 21 hrs by propidium iodide based flow cytometry; assay type: functional

GTPase KRas (Homo sapiens), P01116 [UNDEFINED MUTATION], sequence (P01116 whole entry, looked up, stated change not applied): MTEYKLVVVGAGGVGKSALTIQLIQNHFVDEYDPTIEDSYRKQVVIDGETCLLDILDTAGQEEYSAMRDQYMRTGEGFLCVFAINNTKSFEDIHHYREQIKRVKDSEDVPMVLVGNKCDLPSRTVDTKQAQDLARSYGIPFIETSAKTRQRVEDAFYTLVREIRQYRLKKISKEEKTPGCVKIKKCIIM
Microtubule-associated protein tau (Homo sapiens), sequence (P10636 whole entry): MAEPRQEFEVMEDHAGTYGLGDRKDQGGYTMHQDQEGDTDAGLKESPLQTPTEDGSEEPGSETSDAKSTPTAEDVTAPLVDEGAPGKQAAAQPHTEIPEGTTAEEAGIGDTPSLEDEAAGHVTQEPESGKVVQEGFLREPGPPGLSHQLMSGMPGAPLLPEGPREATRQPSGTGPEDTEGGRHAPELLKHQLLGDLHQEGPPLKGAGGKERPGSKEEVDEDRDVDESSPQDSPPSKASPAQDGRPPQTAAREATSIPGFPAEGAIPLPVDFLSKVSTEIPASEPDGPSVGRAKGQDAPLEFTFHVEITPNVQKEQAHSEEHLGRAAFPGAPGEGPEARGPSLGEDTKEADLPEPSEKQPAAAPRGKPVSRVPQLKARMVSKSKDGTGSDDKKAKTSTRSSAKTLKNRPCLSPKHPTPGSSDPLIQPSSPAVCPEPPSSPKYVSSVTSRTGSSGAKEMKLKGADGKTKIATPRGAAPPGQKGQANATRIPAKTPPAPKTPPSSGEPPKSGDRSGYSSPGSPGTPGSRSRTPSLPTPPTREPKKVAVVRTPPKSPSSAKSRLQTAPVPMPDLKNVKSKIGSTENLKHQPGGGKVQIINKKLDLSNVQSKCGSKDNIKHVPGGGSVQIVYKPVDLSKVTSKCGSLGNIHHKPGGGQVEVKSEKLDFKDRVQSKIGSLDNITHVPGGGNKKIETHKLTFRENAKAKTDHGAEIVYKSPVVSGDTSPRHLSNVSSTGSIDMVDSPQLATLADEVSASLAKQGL
Apolipoprotein C-III (Homo sapiens), sequence (P02656 whole entry): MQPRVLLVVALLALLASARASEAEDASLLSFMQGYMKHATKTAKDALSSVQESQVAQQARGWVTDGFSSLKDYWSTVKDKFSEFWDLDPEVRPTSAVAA
Sodium channel protein type 9 subunit alpha (Homo sapiens), sequence (Q15858 whole entry, looked up): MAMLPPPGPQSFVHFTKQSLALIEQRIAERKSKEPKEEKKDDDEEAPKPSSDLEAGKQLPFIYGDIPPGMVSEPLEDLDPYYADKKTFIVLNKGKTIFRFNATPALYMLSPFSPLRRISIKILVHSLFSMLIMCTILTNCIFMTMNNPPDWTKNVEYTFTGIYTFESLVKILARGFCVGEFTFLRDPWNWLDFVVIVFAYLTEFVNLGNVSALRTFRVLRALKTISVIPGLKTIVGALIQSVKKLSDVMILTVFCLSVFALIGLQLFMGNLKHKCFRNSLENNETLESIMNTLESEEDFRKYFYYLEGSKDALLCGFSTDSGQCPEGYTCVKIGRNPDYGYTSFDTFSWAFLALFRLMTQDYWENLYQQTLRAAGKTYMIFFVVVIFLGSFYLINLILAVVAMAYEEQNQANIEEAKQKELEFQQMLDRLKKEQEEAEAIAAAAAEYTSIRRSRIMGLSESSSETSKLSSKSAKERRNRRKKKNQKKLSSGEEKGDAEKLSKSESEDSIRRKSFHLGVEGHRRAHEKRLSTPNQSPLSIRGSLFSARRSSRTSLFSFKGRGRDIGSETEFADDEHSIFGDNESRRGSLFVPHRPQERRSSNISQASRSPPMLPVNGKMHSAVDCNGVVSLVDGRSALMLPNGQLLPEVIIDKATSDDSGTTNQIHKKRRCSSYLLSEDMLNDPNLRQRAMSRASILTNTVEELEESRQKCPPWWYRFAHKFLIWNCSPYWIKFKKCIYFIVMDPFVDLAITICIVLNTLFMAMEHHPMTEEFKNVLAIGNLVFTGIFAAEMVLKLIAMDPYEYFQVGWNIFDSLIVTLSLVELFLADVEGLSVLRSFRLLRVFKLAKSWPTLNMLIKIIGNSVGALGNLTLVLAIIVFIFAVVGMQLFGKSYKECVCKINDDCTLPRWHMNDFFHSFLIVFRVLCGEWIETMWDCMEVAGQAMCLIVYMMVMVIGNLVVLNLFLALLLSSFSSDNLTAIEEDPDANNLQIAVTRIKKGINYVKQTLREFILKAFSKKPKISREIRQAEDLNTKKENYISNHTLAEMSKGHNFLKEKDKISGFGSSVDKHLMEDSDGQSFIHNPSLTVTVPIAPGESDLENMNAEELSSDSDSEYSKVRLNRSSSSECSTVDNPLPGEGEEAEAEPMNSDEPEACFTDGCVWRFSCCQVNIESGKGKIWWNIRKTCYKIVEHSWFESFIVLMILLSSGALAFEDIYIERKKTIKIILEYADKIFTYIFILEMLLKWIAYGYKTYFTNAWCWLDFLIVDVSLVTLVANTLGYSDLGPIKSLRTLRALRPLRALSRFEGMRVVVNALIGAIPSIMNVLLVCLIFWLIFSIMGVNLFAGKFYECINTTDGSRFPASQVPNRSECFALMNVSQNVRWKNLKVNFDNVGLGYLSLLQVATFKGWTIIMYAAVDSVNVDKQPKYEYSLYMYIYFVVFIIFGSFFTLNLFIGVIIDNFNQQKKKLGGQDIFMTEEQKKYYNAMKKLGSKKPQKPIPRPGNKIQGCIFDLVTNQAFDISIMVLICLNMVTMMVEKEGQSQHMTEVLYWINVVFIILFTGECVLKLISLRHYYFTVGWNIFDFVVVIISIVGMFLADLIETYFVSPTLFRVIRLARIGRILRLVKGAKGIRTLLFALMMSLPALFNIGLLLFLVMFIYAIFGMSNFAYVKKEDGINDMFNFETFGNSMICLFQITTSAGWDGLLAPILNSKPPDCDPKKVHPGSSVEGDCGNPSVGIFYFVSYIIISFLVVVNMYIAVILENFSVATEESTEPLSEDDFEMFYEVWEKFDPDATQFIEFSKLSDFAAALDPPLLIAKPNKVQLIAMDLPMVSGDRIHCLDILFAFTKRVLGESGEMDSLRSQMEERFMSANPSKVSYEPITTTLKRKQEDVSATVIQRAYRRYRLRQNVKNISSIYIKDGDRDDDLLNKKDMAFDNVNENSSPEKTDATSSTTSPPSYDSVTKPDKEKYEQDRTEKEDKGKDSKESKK
Proprotein convertase subtilisin/kexin type 9 (Homo sapiens), sequence (Q8NBP7 31-152 limits assumed): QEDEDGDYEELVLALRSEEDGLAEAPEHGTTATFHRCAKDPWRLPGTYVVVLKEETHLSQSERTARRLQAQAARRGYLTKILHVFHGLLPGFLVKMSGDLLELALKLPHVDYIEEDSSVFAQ
Proprotein convertase subtilisin/kexin type 9 (Homo sapiens), sequence (Q8NBP7 153-692 limits assumed): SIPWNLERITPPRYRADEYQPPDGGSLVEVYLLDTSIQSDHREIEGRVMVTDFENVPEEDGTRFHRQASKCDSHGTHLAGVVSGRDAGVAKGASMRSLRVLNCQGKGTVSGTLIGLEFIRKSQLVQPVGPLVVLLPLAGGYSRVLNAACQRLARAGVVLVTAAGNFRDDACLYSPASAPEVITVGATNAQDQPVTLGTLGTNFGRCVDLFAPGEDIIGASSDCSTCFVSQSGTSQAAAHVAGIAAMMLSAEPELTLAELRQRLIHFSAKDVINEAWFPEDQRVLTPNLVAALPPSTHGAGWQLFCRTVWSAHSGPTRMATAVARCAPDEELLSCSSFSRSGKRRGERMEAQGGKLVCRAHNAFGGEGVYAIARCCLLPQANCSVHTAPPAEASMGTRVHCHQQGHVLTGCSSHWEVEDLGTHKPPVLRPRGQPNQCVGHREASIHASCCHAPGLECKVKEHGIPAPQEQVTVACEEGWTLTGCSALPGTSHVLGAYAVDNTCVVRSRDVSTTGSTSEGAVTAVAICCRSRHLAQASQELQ

SMILES: CCCCc1c2c(c(C)c3c1C(=O)OC3)Oc1ccccc1O2
- inhibition [1]: 17%
- inhibition [2]: 66%
- inhibition [3]: 92%
- EC50 [4]: > 20000 nM
- inhibition [5]: 138%
- inhibition [6]: Dose-dependent effect
- inhibition [7]: 67%
- IC50 (HT-29 [8]): 1730 nM
- inhibition [9]: 17%
- inhibition [10]: 80%
- IC50 (HeLa [11]): 1700 nM
- EC50 (HeLa [12]): 2000 nM
- inhibition [13]: 73%
- inhibition [14]: 76%
- EC50 (HeLa [15]): > 10000 nM
- IC50 (HeLa [16]): 2200 nM
- inhibition [17]: 91%
- EC50 (HeLa [18]): 2100 nM
- inhibition [19]: 63%
- selectivity ratio (CYP1A1): 3.7
- inhibition [20]: Dose-dependent effect
- inhibition [21]: 93%
- inhibition [22]: 65%
- inhibition [23]: Dose-dependent effect
- inhibition [24]: 89%
- IC50 (HT-29 [25]): 7330 nM
- inhibition [26]: Dose-dependent effect
- inhibition [27]: 95%
- inhibition [28]: 5%
- Ratio IC50 (HT-29 [29]): 0.24
- EC50 [30]: 6700 nM
- IC50 (CHO): 1480 nM
- inhibition [31]: 78%
- IC50 (HeLa [32]): > 10000 nM
